Four compounds from PMC2888690 (Journal of combinatorial chemistry, 2009) can be followed below.

Several values for one entry are separate records, joined by “and”; a condition that tells them apart may be missing. Equal values may be shown once. Read-outs that look alike come from different tables or passages of the source. Where only a bound is given, the exact number is not on record here.

In assay [1] the test system is Bacillus anthracis Sterne. Put plainly: microbe, parasite or virus in culture. Type of assay: cell-based.
In assay [2] the test system is Bacillus anthracis Sterne. The experiment in a line: microbe, parasite or virus in culture. Type of assay: cell-based. This is another data set of the same source.

On to `O=C(Nc1ccc(NS(=O)(=O)c2ccc(Cl)c(Cl)c2)cc1)Nc1ccc([N+](=O)[O-])cc1` [5{1}, 3,4-Dichloro-(N-(4-(((4-nitrophenyl)amino)carbonyl)aminophenyl))benzenesulfonamide], for which the MIC in assay [1] (5 h, read-out: MH MIC) is 3.8 µM and 1.8 µg/mL; in assay [1] (read-out: MH B.a. MIC), 3.8 µM and 1.8 µg/mL; in assay [2] (5 h, read-out: LB MIC) it was 2.8 µM and 1.3 µg/mL; in assay [2] (read-out: LB B.a. MIC), 2.8 µM and 1.3 µg/mL.
Turning to `O=C(Nc1ccc(NS(=O)(=O)c2ccc(Cl)c(Cl)c2)cc1)Nc1cccc([N+](=O)[O-])c1` [5{2}, 3,4-Dichloro-(N-(4-(((3-nitrophenyl)amino)carbonyl)aminophenyl))benzenesulfonamide], the MIC in assay [2] (5 h, read-out: LB MIC) is > 240 µM and > 115 µg/mL; in assay [2] (read-out: LB B.a. MIC) it was > 240 µM and > 115 µg/mL.
For `O=C(Nc1ccc(NS(=O)(=O)c2ccc(Cl)c(Cl)c2)cc1)Nc1ccccc1[N+](=O)[O-]` [5{3}, 3,4-Dichloro-(N-(4-(((2-nitrophenyl)amino)carbonyl)aminophenyl))benzenesulfonamide], the MIC in assay [2] (5 h, read-out: LB MIC) is > 240 µM and > 115 µg/mL; in assay [2] (read-out: LB B.a. MIC) it was > 240 µM and > 115 µg/mL.
As for `Nc1ccc(S(=O)(=O)Nc2ccc(NC(=O)Nc3ccccc3[N+](=O)[O-])cc2)cc1` [compound 9, 4-Amino-(N-(4-(((2-nitrophenyl)amino)carbonyl)aminophenyl))benzenesulfonamide], the MIC in assay [2] (5 h, read-out: LB MIC) was 120 µM and 53 µg/mL.
